According to patent publication US20050150764A1 (priority 2001, published 2005):

Row | SMILES | logP (pH 2) | logP (pH 2)/ m.p. [° C.] (logP part)
1 | O=C(c1cccc(OC(F)(F)F)c1)C(Br)CCCl (stereo not shown) [Example V-3] | 4.19 | 
2 | O=C1OCCC1C(=O)c1cccc(OC(F)(F)F)c1 (stereo not shown) [VIIa-4] | 2.59 | 
3 | O=C1OCCC1C(=O)c1cccc(Br)c1 (stereo not shown) [Vlla-5] | 2.22 | 
4 | N#Cc1cccc(C2=NN(C(=O)Nc3ccc(OC(F)(F)F)cc3)CCC2n2cc(C#N)cn2)c1 (stereo not shown) [Example 29] |  | 3.62/239
5 | N#Cc1cnn(C2CCN(C(=O)Nc3ccc(Br)cc3)N=C2c2cccc(Cl)c2)c1 (stereo not shown) [Example 28] |  | 4.03
6 | N#Cc1cnn(C2CCN(C(=O)Nc3ccc(Cl)cc3)N=C2c2cccc(Br)c2)c1 (stereo not shown) [Example 22] |  | 3.96/213
7 | N#Cc1ccc(NC(=O)N2CCC(n3cc(Cl)cn3)C(c3cccc(Cl)c3)=N2)cc1 (stereo not shown) [Example 20] |  | 3.77
8 | N#Cc1cccc(C2=NN(C(=O)Nc3ccc(SC(F)(F)F)cc3)CCC2n2cc(C#N)cn2)c1 (stereo not shown) [Example 26] |  | 3.94/242
9 | N#Cc1cnn(C2CCN(C(=O)Nc3ccc(Cl)cc3)N=C2c2cccc(Cl)c2)c1 (stereo not shown) [Example 18] |  | 3.90/228
10 | N#Cc1cnn(C2CCN(C(=O)Nc3ccc(SC(F)(F)F)cc3)N=C2c2cccc(Cl)c2)c1 (stereo not shown) [Example 21] |  | 4.53/194
11 | N#Cc1cnn(C2CCN(C(=O)Nc3ccc(OC(F)(F)F)cc3)N=C2c2cccc(Cl)c2)c1 (stereo not shown) [Example 19] |  | 4.15/186
12 | N#Cc1cnn(C2CCN(C(=O)Nc3ccc(C(F)(F)F)cc3)N=C2c2cccc(Br)c2)c1 (stereo not shown) [Example 27] |  | 4.18/244
13 | O=C(c1cccc(F)c1)C(Br)CCCl (stereo not shown) [Example V-2] | 3.47 | 
14 | O=C(c1cccc(Br)c1)C(Br)CCCl (stereo not shown) [Example V-4] | 4.02 | 
15 | N#Cc1cnn(C2CCN(C(=O)Nc3ccc(OC(F)(F)F)cc3)N=C2c2cccc(Br)c2)c1 (stereo not shown) [Example 25] |  | 4.24/192
16 | N#Cc1cnn(C2CCN(C(=O)Nc3ccc(SC(F)(F)F)cc3)N=C2c2cccc(Br)c2)c1 (stereo not shown) [Example 24] |  | 4.64/206

Other lines, results leading:

Row | logP (pH 2) | logP (pH 2)/ m.p. [° C.] (logP part) | SMILES
17 | 3.06 |  | N#Cc1cnn(C(CCCl)C(=O)c2cccc(Cl)c2)c1 (stereo not shown) [IV-7]
18 | 3.71 |  | O=C(CCCCl)c1cccc(OC(F)(F)F)c1 [VI-2]
19 | 3.13 |  | N#Cc1cnn(C(CCCl)C(=O)c2cccc(Br)c2)c1 (stereo not shown) [IV-8]
20 | 1.83 |  | N#Cc1cccc(C2=NNCCC2n2cc(C#N)cn2)c1 (stereo not shown) [II-9]
21 | 3.99 |  | O=C(c1cccc(OC(F)(F)F)c1)C(CCCl)n1cc(Cl)cn1 (stereo not shown) [IV-5]
22 | 3.03 |  | Clc1cnn(C2CCNN=C2c2cccc(Br)c2)c1 (stereo not shown) [II-6]
23 | 3.68 |  | O=C(c1cccc(Cl)c1)C(CCCl)n1cc(Cl)cn1 (stereo not shown) [IV-4]
24 | 2.40 |  | N#Cc1cnn(C2CCNN=C2c2cccc(Cl)c2)c1 (stereo not shown) [II-7]
25 | 3.32 |  | FC(F)(F)Oc1cccc(C2=NNCCC2n2cc(Cl)cn2)c1 (stereo not shown) [II-5]
26 | 2.49 |  | N#Cc1cnn(C2CCNN=C2c2cccc(Br)c2)c1 (stereo not shown) [II-8]
27 | 3.50 |  | O=C(CCCCl)c1cccc(Br)c1 [VI-3]
28 | 3.78 |  | O=C(c1cccc(Br)c1)C(CCCl)n1cc(Cl)cn1 (stereo not shown) [IV-6]
29 | 3.84 |  | O=C(c1cccc(C(F)(F)F)c1)C(CCCl)n1cc(Cl)cn1 (stereo not shown) [IV-2]
30 | 2.59 |  | Fc1cccc(C2=NNCCC2n2cc(Cl)cn2)c1 (stereo not shown) [II-3]
31 | 2.93 |  | Clc1cccc(C2=NNCCC2n2cc(Cl)cn2)c1 (stereo not shown) [II-4]
32 | 3.31 |  | O=C(c1cccc(F)c1)C(CCCl)n1cc(Cl)cn1 (stereo not shown) [IV-3]
33 | 2.41 |  | N#Cc1cccc(C(=O)C(CCCl)n2cc(C#N)cn2)c1 (stereo not shown) [IV-9]
34 | 3.09 |  | FC(F)(F)c1cccc(C2=NNCCC2n2cc(Cl)cn2)c1 (stereo not shown) [II-2]
